Values joined by “and” are separate entries in the source; they are usually repeats but may differ in a detail not shown here. Equal entries are not always repeated. Marks after values point to notes of the source that are not given here.
Legend:
Type in all cases: in vivo
[1] = Compound 1 single dose rat PK study; conditions: male Sprague Dawley rats, single iv dose 2 mg/kg, first plasma collection time listed as Tmax
Protocol: A pharmacokinetic study of Compound 1 following a single intravenous or oral dose administration to male Sprague Dawley rats was conducted, the results of which are found in Table 3 and FIGS. 9-14.

[2] = Compound 1 single dose mouse PK study; conditions: male CD-1 mice, single iv dose 2 mg/kg; first plasma collection time
Protocol: A pharmacokinetic study of Compound 1 following a single intravenous or oral dose administration to male CD-1 mice was conducted, the results of which are found in Table 4 and FIGS. 15-20.

[3] = Compound 2 single dose rat PK study; conditions: male Sprague Dawley rats, single iv dose 2 mg/kg; for Tmax: first plasma collection time or observed time of highest plasma concentration
Protocol: A pharmacokinetic study of Compound 2 following a single intravenous or oral dose administration to male Sprague Dawley rats was conducted, the results of which are found in Table 5 and FIGS. 21-24.

Tmax ([1]; Mean) [min] | Tmax ([1]; individual rat) [min] | Tmax [2] | Tmax ([3]; Mean) [min] | AUCinf ([3]; individual rat, 2 mg/kg) | Cl ([3]; individual rat, 2 mg/kg) | Tmax ([3]; individual rat, 2 mg/kg) [min] | SMILES
4.98 | 4.98 | 0.083^b hr |  |  |  |  | CC(=O)N1CCc2c(C(=O)N3CCC(c4ccc(F)c(F)c4C(F)(F)F)CC3)n[nH]c2C1 [Compound 1, 1-(3-(4-(3,4-difluoro-2-(trifluoromethyl)phenyl)piperidine-1-carbonyl)-1,4,5,7-tetrahydro-6H-pyrazolo[3,4-c]pyridin-6-yl)ethan-1-one]
 |  |  | 13.3 | 4.027 µg·h/mL and 5.052 µg·h/mL | 0.248 L/h/kg and 0.198 L/h/kg | 4.98 | CC(=O)N1Cc2[nH]nc(C(=O)N3CCC(c4ccc(F)c(F)c4C(F)(F)F)CC3)c2C1 [Compound 2, 1-(3-(4-(3,4-difluoro-2-(trifluoromethyl)phenyl)piperidine-1-carbonyl)-4,6-dihydropyrrolo[3,4-c]pyrazol-5(1H)-yl)ethan-1-one]

Reference: patent publication US20250295654A1, “METHODS OF TREATING METABOLIC DISEASES WITH FUSED BICYCLIC PYRAZOLES” (Belite Bio, Inc, priority 2019, published 2025)
